According to patent US12390485B2, “Compounds and methods for suppressing an immune response to substances containing polyethylene glycol” (aAb Therapeutics, LLC, priority 2020, dated 2025):

Tests used:
[1] = system: anti-PEG antibody response; experiment: Treatment model: mice with existing anti-PEG antibody response from PEG-KLH (serum ELISA); assay type: in vivo, BALB/c mice; conditions: PEG alone before and after PEG-KLH boosting (P/P), Day 21 and Day 28; bleed Day 30; serum 1:500; FIG. 6
Text: Male BALB/c mice (aged 6-8 weeks) were immunized intraperitoneally (i.p.) with PEG conjugated to KLH (PEG-KLH) using Complete Freund's adjuvant on Day 1 (50 mcg) and boosted with the same conjugate using Incomplete Freund's adjuvant on Day 18 (25 mcg). Pre-immunization blood samples were collected by retroorbital bleeding on Day −5. All other blood draws were collected on the days indicated. For testing, pools of serum from each group (n=5) were generated by mixing equal volumes of serum from each mouse in the group. Treatments were as outlined below.
(§1) ELISAs were carried out as follows. Plates were coated overnight at 4° C. with 0.5 mcg antigen in 100 uL sodium carbonate coating buffer, then washed twice with PBS and blocked with 300 uL Blocking Buffer (nonfat dry milk-PBS (5% w/v) or 1× fish gel (Rockland immunochemicals)) at room temperature for 1 hr. […] After washing 3× for 5 minutes each with PBS, 100 uL TMBE was added to each well and a kinetic read taken for 5 minutes. Plates were allowed to continue the color development reaction for a total of 30 minutes at which time 100 uL stop solution was added and plates read. […]
In this treatment scenario, to generate anti-PEG antibodies prior to treatment, mice were first immunized with PEG-KLH conjugate on Day 0 and boosted on Day 22 (FIG. 5). […] Anti-PEG IgG antibodies were measured on Day 30 by ELISA as indicated above (serum diluted 1:500). […]

[2] = system: anti-PEG antibody response; experiment: Prophylaxis model: anti-PEG antibody response in PEG-naïve mice immunized with PEG-KLH (serum ELISA); assay type: in vivo, BALB/c mice
Method: Pre-immunization blood samples were collected by retroorbital bleeding on Day −5. All other blood draws were collected on the days indicated. For testing, pools of serum from each group (n=5) were generated by mixing equal volumes of serum from each mouse in the group. Treatments were as outlined below.
as §1
In the present experiment, we first studied the anti-PEG IgM antibody response. […] Anti-PEG IgM antibodies were then measured against PEG-BSA by ELISA from bleeds collected on Day −5 and Day 9 (serum dilution 1:500)(FIG. 2).
In the present experiment, detection of IgG antibodies on Day 9 is not generally expected as this antibody subclass generally takes two weeks or more to emerge after immunization. […] The anti-PEG IgG response was assessed by ELISA as described above, using a serum dilution of 1:500.

For MeO-23PEG-Ethanolamine, the “anti-PEG IgG antibodies” value [1] was “had no effect on anti-PEG IgG antibodies”, the “anti-PEG IgG antibodies (ELISA)” value ([2]; treatment Day 0 and Day 7, additional PEG-KLH immunization Day 22, bleed Day 26, serum 1:500, FIG. 4) was “readily detected” and the “anti-PEG IgM antibodies (ELISA against PEG-BSA)” value ([2]; treatment i.p. Day 0 and Day 7, PEG-KLH Day 1, bleed Day 9, pooled serum 1:500, FIG. 3) was “readily detected”.
